This passage reports GI50 results from patent US20240197726A1, “NOVEL TETRAHYDROISOQUINOLINE ALKALOID COMPOUND CONTAINING MACROCYCLE” (THE UNIVERSITY OF TOKYO, priority 2021, published 2024).

Holding throughout (format): cell-based
Assay [1] concerns DMS273 lung cancer cells. Description: antitumor activity, sulforhodamine B cell growth assay, DMS273. How it is done: (§1) The THIQ compound containing a macrocyclic structure of the present invention was administered to various cancer cell lines, and the antitumor activity (Go value) was observed. Specifically, verification was performed according to the literature (Yamori, T.; Matsunaga, A.; Sato, S.; Yamazaki, K.; Komi, A.; Ishizu, K. et al. Cancer Res. 1999, 59, 4042) by the following procedure.
(§2) Cells were plated at an appropriate density in a 96-well plate in RPMI 1640 together with 5% fetal bovine serum, and adhered overnight. The cells were exposed to a drug for 48 hours. Then, according to the sulforhodamine B assay described by Skehan et al (Skehan P., Storeng R., Scudiero D., Monks A., McMahon J., Vistica D., Warren J. T., Bokesch H., Kenney S., Boyd M. R. J Natl. Cancer Inst, 1990, 82, 1107-1112), the cell growth rate was measured. The absorbance of the control well (C) and the test well (T) was measured at 525 nm. In addition, the time at which the drug was added was set as time 0, and the absorbance for the test well (T0) was measured. Using these measured values, the cell growth inhibitory effect (% growth=PG) was calculated by the following formula at each concentration of the drug.
(§3) (T<T0): PG=100×[(T−T0)/T]
(§4) The PG values determined above for each cell line were plotted against the concentration (logarithm) on a semi-logarithmic graph, and summarized for each visceral cancer. Concentrations at which the dose-response curve of each cell line crossed the horizontal line of PG=50%, 0%, or −50% were calculated. These concentrations were defined as Log GI50, Log TGI, and Log LC50. Actually, using two data points of the drug concentration before and after crossing each horizontal line, the drug concentration (logarithmic value) at the intersection of the straight line connecting the two points and the horizontal line for each PG was calculated.

In assay [2] the test system is HT-29 colorectal cancer cells. Description: antitumor activity, sulforhodamine B cell growth assay, HT-29. How it is done:
as §1, §2, §3, §4

Assay [3] deals with U251 central nervous system cancer cells. Description: antitumor activity, sulforhodamine B cell growth assay, U251. How it is done: as §1, §2, §3, §4
The subject of assay [4] is NCI-H522 lung cancer cells. Description: antitumor activity, sulforhodamine B cell growth assay, NCI-H522. How it is done: as §1, §2, §3, §4
For assay [5], the system named is LOX-IMVI melanoma cells. Description: antitumor activity, sulforhodamine B cell growth assay, LOX-IMVI. How it is done:
as §1, §2, §3, §4

The subject of assay [6] is SF-539 central nervous system cancer cells. Description: antitumor activity, sulforhodamine B cell growth assay, SF-539. The method, then: as §1, §2, §3, §4
In assay [7] the test system is PC-3 prostate cancer cells. Description: antitumor activity, sulforhodamine B cell growth assay, PC-3. How it is done:
as §1, §2, §3, §4

The test system of assay [8] is MKN45 gastric cancer cells. Description: antitumor activity, sulforhodamine B cell growth assay, MKN45. The method, then: as §1, §2, §3, §4
The test system of assay [9] is NCI-H23 lung cancer cells. Description: antitumor activity, sulforhodamine B cell growth assay, NCI-H23. How it is done:
as §1, §2, §3, §4

For assay [10], the system named is OVCAR-4 cancer cells. Description: antitumor activity, sulforhodamine B cell growth assay, OVCAR-4. The method, then:
as §1, §2, §3, §4

Assay [11] has as its system ACHN kidney cancer cells. Description: antitumor activity, sulforhodamine B cell growth assay, ACHN. How it is done:
as §1, §2, §3, §4

Assay [12] concerns DU-145 prostate cancer cells. Description: antitumor activity, sulforhodamine B cell growth assay, DU-145. How it is done: as §1, §2, §3, §4
Assay [13] concerns SK-OV-3 cancer cells. Description: antitumor activity, sulforhodamine B cell growth assay, SK-OV-3. The method, then: as §1, §2, §3, §4
Assay [14] relates to SF-268 central nervous system cancer cells. Description: antitumor activity, sulforhodamine B cell growth assay, SF-268. The method, then: as §1, §2, §3, §4
Assay [15] relates to HBC-5 breast cancer cells. Description: antitumor activity, sulforhodamine B cell growth assay, HBC-5. The method, then: as §1, §2, §3, §4
Assay [16] concerns MKN74 gastric cancer cells. Description: antitumor activity, sulforhodamine B cell growth assay, MKN74. The method, then:
as §1, §2, §3, §4

In assay [17] the test system is MKN-A gastric cancer cells. Description: antitumor activity, sulforhodamine B cell growth assay, MKN-A. The method, then:
as §1, §2, §3, §4

For assay [18], the system named is HCT-15 colorectal cancer cells. Description: antitumor activity, sulforhodamine B cell growth assay, HCT-15. How it is done: as §1, §2, §3, §4
Where [19] appears, read: Homo sapiens, DMS-273, DMS273 lung cancer cells, read-out: antitumor activity GI50 value: 50% growth inhibitory concentration.
The mark [20] stands for this setting: Homo sapiens, HT-29 colorectal cancer cells, read-out: antitumor activity GI50 value: 50% growth inhibitory concentration.
Setting [21] is: Homo sapiens, U-251, U251 central nervous system cancer cells, read-out: antitumor activity GI50 value: 50% growth inhibitory concentration.
Where [22] appears, read: Homo sapiens, NCI-H522, NCl-H522 lung cancer cells, read-out: antitumor activity GI50 value: 50% growth inhibitory concentration.
The mark [23] stands for this setting: Homo sapiens, LOX-IMVI melanoma cells, read-out: antitumor activity GI50 value: 50% growth inhibitory concentration.
The mark [24] stands for this setting: Homo sapiens, SF-539 central nervous system cancer cells, read-out: antitumor activity GI50 value: 50% growth inhibitory concentration.
Setting [25] is: PC-3 prostate cancer cells, read-out: antitumor activity GI50 value: 50% growth inhibitory concentration.
Setting [26] is: Homo sapiens, MKN-45, MKN45 gastric cancer cells, read-out: antitumor activity GI50 value: 50% growth inhibitory concentration.
The mark [27] stands for this setting: Homo sapiens, NCI-H23, NCl-H23 lung cancer cells, read-out: antitumor activity GI50 value: 50% growth inhibitory concentration.
Where [28] appears, read: Homo sapiens, OVCAR-4 cervical cancer cells, read-out: antitumor activity GI50 value: 50% growth inhibitory concentration.
[29] abbreviates: Homo sapiens, ACHN kidney cancer cells, read-out: antitumor activity GI50 value: 50% growth inhibitory concentration.
Setting [30] is: Homo sapiens, DU-145 prostate cancer cells, read-out: antitumor activity GI50 value: 50% growth inhibitory concentration.
[31] abbreviates: Homo sapiens, SK-OV-3 cervical cancer cells, read-out: antitumor activity GI50 value: 50% growth inhibitory concentration.
[32] abbreviates: Homo sapiens, SF-268 central nervous system cancer cells, read-out: antitumor activity GI50 value: 50% growth inhibitory concentration.
The mark [33] stands for this setting: HBC5, HBC-5 breast cancer cells, read-out: antitumor activity GI50 value: 50% growth inhibitory concentration.
[34] abbreviates: Homo sapiens, MKN-74, MKN74 gastric cancer cells, read-out: antitumor activity GI50 value: 50% growth inhibitory concentration.
The mark [35] stands for this setting: MKN-A gastric cancer cells, read-out: antitumor activity GI50 value: 50% growth inhibitory concentration.
Setting [36] is: Homo sapiens, HCT-15 colorectal cancer cells, read-out: antitumor activity GI50 value: 50% growth inhibitory concentration.

Structures are written as SMILES. Where two headings read alike, the source gives them in different places.

Consider `C#CCN1C/C=C/COc2c(C)c3c(c4c2C[C@H]2[C@H]5c6c(cc(C)c(OC)c6O)C[C@@H]([C@H](C#N)N2C4CNC(=O)[C@@H]1C)N5C)OCO3` [Compound 44], for which the GI50 in assay [1] (setting [19]), in assay [2] (setting [20]), in assay [3] (setting [21]), in assay [4] (setting [22]), in assay [5] (setting [23]) and in assay [6] (setting [24]) was under 0.01 µM throughout. Besides, the GI50 in assay [7] (setting [25]), in assay [8] (setting [26]), in assay [9] (setting [27]), in [10] (setting [28]), in assay [11] (setting [29]) and in [12] (setting [30]) was under 0.01 µM in each case. For the same compound, the GI50 in [13] (setting [31]), in assay [14] (setting [32]), in [15] (setting [33]), in assay [16] (setting [34]), in assay [17] (setting [35]) and in assay [18] (setting [36]) was under 0.01 µM each time.

Turning to `C#CCN1C(=O)[C@H]2[C@@H]3C=C(COc4c(C)c5c(c6c4C[C@H]4[C@H]7c8c(cc(C)c(OC)c8O)C[C@@H]([C@H](C#N)N4C6CNC(=O)[C@H](C)NC(=O)OC3)N7C)OCO5)C[C@H]2C1=O` [Compound 47], the GI50 in assay [1] (setting [19]) is 0.45 µM; in assay [2] (setting [20]), 0.49 µM; in assay [3] (setting [21]), 0.35 µM; in assay [4] (setting [22]) it was 0.029 µM; in assay [5] (setting [23]) it was 0.16 µM; in [6] (setting [24]), 0.29 µM. Also, the GI50 in [7] (setting [25]) came out at 1.5 µM; in assay [8] (setting [26]) it was 0.47 µM; in assay [9] (setting [27]) it was 0.85 µM; in [10] (setting [28]) it was 3.5 µM; in assay [11] (setting [29]), 2.6 µM; in [12] (setting [30]) it was 3.9 µM. Further, the GI50 in [13] (setting [31]) was found to be 3.9 µM; in assay [14] (setting [32]), 0.62 µM; in assay [15] (setting [33]) it was 0.3 µM; in assay [16] (setting [34]), 1.5 µM; in assay [17] (setting [35]), 1.4 µM; in assay [18] (setting [36]) it was 2.2 µM.

For the compound `COC1=C(C)C(=O)C2=C(C1=O)[C@H](CNC(=O)[C@H](C)N)N1C(C2)[C@H]2c3c(cc(C)c(OC)c3O)C[C@@H]([C@@H]1C#N)N2C` (some centres unmarked) [Cyanosafracin B, reference compound], the GI50 in [1] (DMS273, drug exposure 48 hours, read-out: GI50 value: 50% growth inhibitory concentration) amounted to 0.27 µM; in assay [2] (HT-29, drug exposure 48 hours, read-out: GI50 value: 50% growth inhibitory concentration), 0.19 µM; in assay [3] (U251, drug exposure 48 hours, read-out: GI50 value: 50% growth inhibitory concentration) it was 0.37 µM; in [4] (NCI-H522, drug exposure 48 hours, read-out: GI50 value: 50% growth inhibitory concentration) it was 0.043 µM; in assay [5] (LOX-IMVI, drug exposure 48 hours, listed as drawing 116, read-out: GI50 value: 50% growth inhibitory concentration) it was 0.081 µM; in [5] (LOX-IMVI, drug exposure 48 hours, listed as drawing 120, read-out: GI50 value: 50% growth inhibitory concentration), 0.061 µM. The GI50 in assay [6] (SF-539, drug exposure 48 hours, read-out: GI50 value: 50% growth inhibitory concentration) was determined as 0.18 µM; in assay [7] (PC-3, drug exposure 48 hours, read-out: GI50 value: 50% growth inhibitory concentration), 0.29 µM; in assay [8] (MKN45, drug exposure 48 hours, read-out: GI50 value: 50% growth inhibitory concentration) it was 0.3 µM; in assay [9] (NCI-H23, drug exposure 48 hours, read-out: GI50 value: 50% growth inhibitory concentration), 0.29 µM; in assay [10] (OVCAR-4, drug exposure 48 hours, read-out: GI50 value: 50% growth inhibitory concentration) it was 0.29 µM; in assay [11] (ACHN, drug exposure 48 hours, read-out: GI50 value: 50% growth inhibitory concentration), 0.32 µM. In addition, the GI50 was determined as 0.49 µM in [12] (DU-145, drug exposure 48 hours, read-out: GI50 value: 50% growth inhibitory concentration); 0.54 µM in [13] (SK-OV-3, drug exposure 48 hours, read-out: GI50 value: 50% growth inhibitory concentration); 0.37 µM in assay [14] (SF-268, drug exposure 48 hours, read-out: GI50 value: 50% growth inhibitory concentration); 0.082 µM in assay [15] (HBC-5, drug exposure 48 hours, listed as drawing 116, read-out: GI50 value: 50% growth inhibitory concentration); 0.062 µM in assay [15] (HBC-5, drug exposure 48 hours, listed as drawing 120, read-out: GI50 value: 50% growth inhibitory concentration); 0.31 µM in assay [16] (MKN74, drug exposure 48 hours, read-out: GI50 value: 50% growth inhibitory concentration). Besides, the GI50 is 0.25 µM in assay [17] (MKN-A, drug exposure 48 hours, read-out: GI50 value: 50% growth inhibitory concentration) and 0.39 µM in [18] (HCT-15, drug exposure 48 hours, read-out: GI50 value: 50% growth inhibitory concentration).

`CC1=C(C)C(=O)C2=C(CC3(C)[C@H]4c5c(cc(C)c(C)c5C)C[C@@](C)(C(C)N3[C@H]2CNC(=O)C(C)C)N4C)C1=O` (some centres unmarked) [drawing 160]: the GI50 was 0.27 µM in assay [1] (setting [19]); 0.19 µM in assay [2] (setting [20]); 0.37 µM in assay [3] (setting [21]); 0.043 µM in assay [4] (setting [22]); 0.061 µM in assay [5] (setting [23]); 0.18 µM in [6] (setting [24]). Also, the GI50 was 0.29 µM in assay [7] (setting [25]); 0.3 µM in assay [8] (setting [26]); 0.29 µM in assay [9] (setting [27]); 0.29 µM in assay [10] (setting [28]); 0.32 µM in [11] (setting [29]); 0.49 µM in [12] (setting [30]). Further, the GI50 in [13] (setting [31]) was 0.54 µM; in assay [14] (setting [32]) it was 0.37 µM; in assay [15] (setting [33]), 0.062 µM; in assay [16] (setting [34]), 0.31 µM; in assay [17] (setting [35]), 0.25 µM; in assay [18] (setting [36]), 0.39 µM.
